Our source for the IC50 and inhibition values is patent US9593121B2, “Indole substituted pyrrolopyrimidinyl inhibitors of Uba6” (Millennium Pharmaceuticals, Inc., priority 2012, dated 2017).

The IC50 is the midpoint of a concentration-inhibition curve. A word on the inhibition: it is the share of the control response that was lost under treatment.

The target in this assay is recombinant human his-UBA6 enzyme (Homo sapiens (Human), UniProt A0AVT1). In words: UBA6 AlphaScreen Assay. The assay is classed as biochemical. To be noted: for inhibition at 0.123 µM: compound at 0.123 μM. As for the experimental part: UBA6 AlphaScreen® Assay. The UBA6 enzmatic reaction totals 20 μL and contains 50 mM HEPES (pH 7.5), 0.05% BSA, 0.02% Tween 20, 0.1 mM TCEP, 5 mM MgCl2, 2 μM ATP, 60 nM Flag-Ubiquitin, 20 nM Biotin-his-Use1, and 0.15 nM recombinant human his-UBA6 enzyme. The enzymatic reaction mixture, with and without compound inhibitor, is incubated at 24° C. for 90 minutes in a 384 well plate before termination with 10 μL of Stop/Detection buffer (50 mM HEPES (pH 7.5), 0.05% BSA, 0.02% Tween 20, 0.1 mM TCEP, 20 mM EDTA, 30 μg/ml anti-FLAG Acceptor beads (Perkin Elmer), and 6 μg/mL streptavidin donor beads (Perkin Elmer). After incubation for 2 hours at 24° C. in a dark room, quantification of the AlphaScreen signal is performed on the Pherastar™ (BMG).
In general terms: Bead proximity is the source of the signal in Alpha formats.

Molecules are shown by their SMILES. Counter-ions that a name gives are not always drawn.

Sequence of recombinant human his-UBA6 enzyme (A0AVT1 whole entry): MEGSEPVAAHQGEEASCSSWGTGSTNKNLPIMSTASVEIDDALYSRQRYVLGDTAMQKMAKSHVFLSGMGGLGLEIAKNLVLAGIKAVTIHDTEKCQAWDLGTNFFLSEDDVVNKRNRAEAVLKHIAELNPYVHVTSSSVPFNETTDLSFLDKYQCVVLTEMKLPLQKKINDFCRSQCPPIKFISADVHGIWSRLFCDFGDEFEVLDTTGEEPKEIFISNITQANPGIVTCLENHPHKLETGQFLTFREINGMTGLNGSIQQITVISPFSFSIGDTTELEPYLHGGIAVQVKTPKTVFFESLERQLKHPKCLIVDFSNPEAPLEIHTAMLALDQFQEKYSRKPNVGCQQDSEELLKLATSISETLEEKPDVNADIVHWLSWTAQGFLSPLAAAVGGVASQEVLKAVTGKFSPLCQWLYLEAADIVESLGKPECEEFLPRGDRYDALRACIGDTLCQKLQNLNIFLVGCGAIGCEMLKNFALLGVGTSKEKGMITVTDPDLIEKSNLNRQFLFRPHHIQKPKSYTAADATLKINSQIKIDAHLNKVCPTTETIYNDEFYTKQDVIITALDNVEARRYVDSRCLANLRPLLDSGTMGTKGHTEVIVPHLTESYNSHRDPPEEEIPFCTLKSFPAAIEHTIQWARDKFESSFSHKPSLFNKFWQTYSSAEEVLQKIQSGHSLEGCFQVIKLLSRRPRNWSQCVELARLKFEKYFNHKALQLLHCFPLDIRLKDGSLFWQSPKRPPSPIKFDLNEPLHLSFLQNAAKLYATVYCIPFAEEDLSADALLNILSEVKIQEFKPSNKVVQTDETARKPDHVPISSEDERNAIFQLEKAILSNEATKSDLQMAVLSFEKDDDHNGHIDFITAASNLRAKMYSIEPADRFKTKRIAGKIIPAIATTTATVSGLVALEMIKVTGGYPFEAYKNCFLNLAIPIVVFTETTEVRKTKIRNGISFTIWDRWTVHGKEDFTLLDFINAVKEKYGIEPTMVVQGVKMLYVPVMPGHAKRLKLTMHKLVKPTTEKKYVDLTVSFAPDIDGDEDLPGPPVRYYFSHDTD

For the compound `NS(=O)(=O)OC[C@@H]1C[C@@H](n2ccc3c(-c4cc5cc(F)c(Cl)cc5[nH]4)ncnc32)C[C@@H]1O` [Compound I-09, {(1S,2S,4R)-4-[4-(6-chloro-5-fluoro-1H-indol-2-yl)-7H-pyrrolo[2,3-d]pyrimidin-7-yl]-2-hydroxycyclopentyl}methyl sulfamate], the IC50 fell in the range of 50 to 2000 nM and the inhibition at 0.123 µM turned out to be 49%.

As to `N#Cc1ccc2cc(-c3ncnc4c3ccn4[C@@H]3C[C@@H](COS(N)(=O)=O)[C@@H](O)C3)[nH]c2c1` [Compound I-05, {(1S,2S,4R)-4-[4-(6-cyano-1H-indol-2-yl)-7H-pyrrolo[2,3-d]pyrimidin-7-yl]-2-hydroxycyclopentyl}methyl sulfamate], the IC50 is no more than 50 nM and the inhibition at 0.123 µM was 86%.

For `COc1ccc2cc(-c3ncnc4c3ccn4[C@@H]3C[C@@H](COS(N)(=O)=O)[C@@H](O)C3)[nH]c2c1` [Compound I-07, {(1S,2S,4R)-2-hydroxy-4-[4-(6-methoxy-1H-indol-2-yl)-7H-pyrrolo[2,3-d]pyrimidin-7-yl]cyclopentyl}methyl sulfamate], the IC50 is no more than 50 nM and the inhibition at 0.123 µM was determined as 90%.

With `Cn1c(-c2ncnc3c2ccn3[C@@H]2C[C@@H](COS(N)(=O)=O)[C@@H](O)C2)cc2ccccc21` [Compound I-02, {(1S,2S,4R)-2-hydroxy-4-[4-(1-methyl-1H-indol-2-yl)-7H-pyrrolo[2,3-d]pyrimidin-7-yl]cyclopentyl}methyl sulfamate HCl], the IC50 lay in the range of 50 to 2000 nM and the inhibition at 0.123 µM came to 5.9%.

As for `NS(=O)(=O)OC[C@@H]1C[C@@H](n2ccc3c(-c4cc5cc(F)ccc5[nH]4)ncnc32)C[C@@H]1O` [Compound I-11, {(1S,2S,4R)-4-[4-(5-fluoro-1H-indol-2-yl)-7H-pyrrolo[2,3-d]pyrimidin-7-yl]-2-hydroxycyclopentyl}methyl sulfamate], the IC50 was in the range of 50 to 2000 nM and the inhibition at 0.123 µM came out at 61%.

Consider `NS(=O)(=O)OC[C@@H]1C[C@@H](n2ccc3c(-c4cc5ccc(Cl)cc5[nH]4)ncnc32)C[C@@H]1O` [Compound I-04, {(1S,2S,4R)-4-[4-(6-chloro-1H-indol-2-yl)-7H-pyrrolo[2,3-d]pyrimidin-7-yl]-2-hydroxycyclopentyl}methyl sulfamate], for which the IC50 is no more than 50 nM and the inhibition at 0.123 µM amounted to 91%.

Consider `COc1cccc2cc(-c3ncnc4c3ccn4[C@@H]3C[C@@H](COS(N)(=O)=O)[C@@H](O)C3)[nH]c12` [Compound I-12, {(1S,2S,4R)-2-hydroxy-4-[4-(7-methoxy-1H-indol-2-yl)-7H-pyrrolo[2,3-d]pyrimidin-7-yl]cyclopentyl}methyl sulfamate], for which the IC50 was in the range of 50 to 2000 nM and the inhibition at 0.123 µM worked out at 12%.

As to `NS(=O)(=O)OC[C@@H]1C[C@@H](n2ccc3c(-c4cc5ccccc5[nH]4)ncnc32)C[C@@H]1O` [Compound I-01, ((1S,2S,4R)-4-(4-(1H-indol-2-yl)-7H-pyrrolo[2,3-d]pyrimidin-7-yl)-2-hydroxycyclopentyl)methyl sulfamate HCl], the IC50 was no more than 50 nM and the inhibition at 0.123 µM came out at 87%.

Regarding `NS(=O)(=O)OC[C@@H]1C[C@@H](n2ccc3c(-c4cc5ccc(C(F)(F)F)cc5[nH]4)ncnc32)C[C@@H]1O` [Compound I-14, [(1S,2S,4R)-2-hydroxy-4-{4-[6-(trifluoromethyl)-1H-indol-2-yl]-7H-pyrrolo[2,3-d]pyrimidin-7-yl}cyclopentyl]methyl sulfamate], the IC50 fell in the range of 50 to 2000 nM and the inhibition at 0.123 µM was 32%.

As to `Cc1c(-c2ncnc3c2ccn3[C@@H]2C[C@@H](COS(N)(=O)=O)[C@@H](O)C2)[nH]c2ccccc12` [Compound I-13, {(1S,2S,4R)-2-hydroxy-4-[4-(3-methyl-1H-indol-2-yl)-7H-pyrrolo[2,3-d]pyrimidin-7-yl]cyclopentyl}methyl sulfamate], the IC50 was 50 to 2000 nM and the inhibition at 0.123 µM amounted to 16%.

Consider `Cc1nc(-c2cc3ccccc3[nH]2)c2ccn([C@@H]3C[C@@H](COS(N)(=O)=O)[C@@H](O)C3)c2n1` [Compound I-08, {(1S,2S,4R)-2-hydroxy-4-[4-(1H-indol-2-yl)-2-methyl-7H-pyrrolo[2,3-d]pyrimidin-7-yl]cyclopentyl}methyl sulfamate HCl], for which the IC50 is no more than 50 nM and the inhibition at 0.123 µM is 74%.

Take `COc1ccc2[nH]c(-c3ncnc4c3ccn4[C@@H]3C[C@@H](COS(N)(=O)=O)[C@@H](O)C3)cc2c1` [Compound I-03, {(1S,2S,4R)-2-hydroxy-4-[4-(5-methoxy-1H-indol-2-yl)-7H-pyrrolo[2,3-d]pyrimidin-7-yl]cyclopentyl}methyl sulfamate]: the IC50 was no more than 50 nM and the inhibition at 0.123 µM came out at 93%.

Consider `COc1ccc2cc(-c3ncnc4c3ccn4[C@@H]3C[C@@H](COS(N)(=O)=O)[C@@H](O)C3)n(C(=O)OC(C)(C)C)c2c1` [Compound I-10, tert-butyl 2-(7-{(1R,3S,4S)-3-hydroxy-4-[(sulfamoyloxy)methyl]cyclopentyl}-7H-pyrrolo[2,3-d]pyrimidin-4-yl)-6-methoxy-1H-indole-1-carboxylate], for which the IC50 lay within 50 to 2000 nM. The inhibition at 1.11 µM (compound at 1.11 μM (footnote ‡)) is 26%.

As for `Cc1ccc2cc(-c3ncnc4c3ccn4[C@@H]3C[C@@H](COS(N)(=O)=O)[C@@H](O)C3)[nH]c2c1` [Compound I-06, {(1S,2S,4R)-2-hydroxy-4-[4-(6-methyl-1H-indol-2-yl)-7H-pyrrolo[2,3-d]pyrimidin-7-yl]cyclopentyl}methyl sulfamate], the IC50 is no more than 50 nM and the inhibition at 0.123 µM was determined as 88%.
